Measurements reported in the supplement of paper PMC10307832.

Tests used:
Assay in all cases: relative viability (nuclei count vs DMSO), 5 days (fraction); higher = more cells survive
[1] = compound: NCC(=O)Nc1ccc(-n2nc(C(F)(F)F)cc2-c2ccc3c(ccc4ccccc43)c2)cc1 + Nc1ncn([C@H]2C[C@H](O)[C@@H](CO)O2)c(=O)n1 [Decitabine] (partner 2 µM)
Procedure, shortened: (§1)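 Nuclei were stained with Hoechst during a one-step fixation (final 0.05% Triton X-100, 1% formaldehyde, 1 ug/ml Hoechst) carried out 5 days after dosing, then counted on 4× images. The cells, lung cancer lines in 1536-well plates, had been dosed by pin tool the day after seeding with one drug alone or a fixed anchor-drug dose plus five library-drug doses (not always all listed) in √10 steps. Relative viability is the nuclei count in treated wells divided by that in vehicle wells, and each value is the median of duplicate plates.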

[2] = compound: C1CSC2=C(C(=O)N1)SC3=C2C=C(C=C3)O [kb NB 142-70] + Nc1ncn([C@H]2C[C@H](O)[C@@H](CO)O2)c(=O)n1 [Decitabine] (partner 2 µM)
Procedure, shortened: as §1

[3] = compound: NCC(=O)Nc1ccc(-n2nc(C(F)(F)F)cc2-c2ccc3c(ccc4ccccc43)c2)cc1 + CC1(C)CCC(c2ccc(Cl)cc2)=C(CN2CCN(c3ccc(C(=O)NS(=O)(=O)c4ccc(N[C@H](CCN5CCOCC5)CSc5ccccc5)c(S(=O)(=O)C(F)(F)F)c4)cc3)CC2)C1 [Navitoclax] (partner 0.5 µM)
Procedure, shortened: as §1

[4] = compound: C1CSC2=C(C(=O)N1)SC3=C2C=C(C=C3)O [kb NB 142-70] + O=C(CCCCCCC(=O)Nc1ccccc1)NO [Vorinostat] (partner 1 µM)
Procedure, shortened: as §1

kb NB 142-70 + Foretinib = compound: C1CSC2=C(C(=O)N1)SC3=C2C=C(C=C3)O [kb NB 142-70] + COc1cc2c(Oc3ccc(NC(=O)C4(C(=O)Nc5ccc(F)cc5)CC4)cc3F)ccnc2cc1OCCCN1CCOCC1 [Foretinib] (partner 0.25 µM)
Procedure, shortened: as §1

Cell Line	relative viability ([1]; first compound 0.02 µM)	relative viability ([1]; first compound 0.06325 µM)	relative viability ([1]; first compound 0.2 µM)	relative viability ([1]; first compound 0.6325 µM)	relative viability ([1]; first compound 2 µM)	relative viability ([2]; first compound 0.1 µM)	relative viability ([2]; first compound 1 µM)	relative viability ([2]; first compound 3.162 µM)	relative viability ([3]; first compound 0.02 µM)	relative viability ([3]; first compound 0.06325 µM)	relative viability ([3]; first compound 0.2 µM)	relative viability ([3]; first compound 0.6325 µM)	relative viability ([3]; first compound 2 µM)	relative viability ([4]; first compound 0.1 µM)	relative viability ([4]; first compound 1 µM)	relative viability ([4]; first compound 3.162 µM)	relative viability (kb NB 142-70 + Foretinib; first compound 0.1 µM)	relative viability (kb NB 142-70 + Foretinib; first compound 1 µM)	relative viability (kb NB 142-70 + Foretinib; first compound 3.162 µM)
NCI-H1666	0.771	0.567	0.778	0.746	0.652	0.76	0.712	0.603	1.14	0.788	1.11	0.913	1.01	1.1	1.05	0.976	0.993	1.02	0.814
NCI-H1734	0.545	0.497	0.488	0.485	0.534	0.525	0.46	0.348	0.889	0.868	0.91	0.787	0.787	0.829	0.724	0.538	0.873	0.738	0.456
NCI-H1755	0.692	0.739	0.686	0.701	0.727	0.7	0.729	0.727	1.03	1.04	1.03	1.03	0.991	0.709	0.801	0.674	0.928	0.867	0.944
NCI-H1793	0.518	0.459	0.549	0.494	0.487	0.487	0.544	0.3	0.529	0.446	0.395	0.411	0.416	0.807	1.02	0.654	0.603	0.742	0.813
NCI-H1915	0.272	0.275	0.276	0.262	0.256	0.263	0.246	0.23	0.771	0.804	0.812	0.767	0.803	0.559	0.565	0.45	1.1	1.12	0.82
NCI-H1944	0.492	0.43	0.436	0.392	0.44	0.451	0.458	0.473	1.06	1.08	1.05	1.04	1.07	0.609	0.566	0.595	0.883	0.934	0.998
NCI-H1975	0.407	0.39	0.43	0.404	0.464	0.431	0.388	0.295	1.04	1.1	1.2	1.11	0.997	0.708	0.816	0.554	0.92	0.928	0.566
NCI-H1993	0.558	0.634	0.663	0.611	0.64	0.63	0.589	0.514	0.945	1.06	1.02	1	0.956	0.921	0.844	0.727	0.739	0.762	0.744
